Reference: US7015244B1 (priority 1998, dated 2006)

What was measured:
tumor = conditions: Phase II, cytotoxic doses; cited from earlier work
[1] = human, inhaled or intranasal
[2] = system: human epidermoid cells, virally infected with HSV-2
[3] = system: human epidermoid cells, virally infected with HSV-2; conditions: cited from earlier work
[4] = system: human epidermoid cells, virally infected with HSV-2; conditions: cited from earlier work; remark: listed apart in the source

Row | SMILES | hematologic toxicity (tumor) | overall tumor response rate (tumor) | In Vivo Dose for Average 1200 Gram Lungs, Cytotoxic Max [1] [ng] | Trichothecene in Vitro Concentration, Cytotoxic Min [2] [ng/mL] | Trichothecene in Vitro Concentration, Toxic Lo [2] [ng/mL] | Trichothecene in Vitro Concentration, Cytotoxic Max ([2]; human) [ng/mL] | concentrations that did not reduce cell viability [3] | Trichothecene in Vitro Concentration, Inhibitory 50% [4] [ng/mL] | Trichothecene in Vitro Concentration, Inhibitory 80% [4] [ng/mL] | Trichothecene in Vitro Concentration, Inhibitory 90% [4] [ng/mL] | Trichothecene in Vitro Concentration, Inhibitory 99% [4] [ng/mL] | inhibition of hyperactive protein synthesis [4] [%]
1 | CC(=O)OC[C@]12CCC(C)=C[C@H]1O[C@@H]1[C@H](O)[C@@H](OC(C)=O)[C@@]2(C)[C@]12CO2 [Anguidine] | considerable hematologic toxicity | low |  |  |  |  |  |  |  |  |  | 
2 | CC(=O)OC[C@]12CCC(C)=C[C@H]1O[C@@H]1[C@H](O)[C@@H](OC(C)=O)[C@@]2(C)[C@]12CO2 [DAS] |  |  | 240000 | 6 | 201 | 200 | up to 200 ng/ml | 2.3 | 4.0 | 4.5 | 5.0 | ~99
